Test results taken from patent US12679878B2, “CRF2 receptor agonists and their use in therapy” (SANOFI, priority 2020, dated 2026).
Starred links: 1 amine or outer side, 2 acyl side, 3 side chain; linkers in the order of their positions; H or OH if unused. Non-standard residues stand in square brackets, D forms with d. Residues, ends and D or L forms follow the SMILES beside them. Groups on a side chain read outwards from the residue. *: point of attachment. γGlu = O=C(O)[C@H](CCC(=O)[*:2])N[*:1]; Palmitoyl = CCCCCCCCCCCCCCCC(=O)*; Aib = CC(C)(N)C(=O)O

Experiments:
[1] = target: T1, CRF1R receptor (Homo sapiens, UniProt P34998); assay: cAMP activity at anti-target CRF1R, CHO-K1 cell line clone 2 (Example 19.10); assay type: cell-based; settings: ratio of CRF1 EC50 to CRF2 EC50
T1 construct: host or cells: CHO-K1 clone 2
T1 sequence (P34998 24-415): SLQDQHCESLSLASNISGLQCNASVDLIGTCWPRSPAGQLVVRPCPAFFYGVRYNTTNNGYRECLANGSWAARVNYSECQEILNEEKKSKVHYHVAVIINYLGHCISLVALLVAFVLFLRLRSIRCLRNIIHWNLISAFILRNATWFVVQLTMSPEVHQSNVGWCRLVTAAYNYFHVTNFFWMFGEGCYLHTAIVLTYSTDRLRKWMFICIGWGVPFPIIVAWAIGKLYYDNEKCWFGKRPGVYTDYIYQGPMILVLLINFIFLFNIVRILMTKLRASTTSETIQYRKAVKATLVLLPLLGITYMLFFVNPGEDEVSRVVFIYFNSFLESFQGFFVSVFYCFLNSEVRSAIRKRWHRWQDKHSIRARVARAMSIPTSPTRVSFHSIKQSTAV
How it was run: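 A CRF1R-overexpressing CHO-K1 line (clone 2) was grown in F12/10% FBS/G418 and frozen in aliquots before use. The cAMP assay followed the preceding procedure, with 100% activation defined by Sauvagine at 100 nM.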

[2] = target: T2, human CRF2α receptor (Homo sapiens, UniProt Q13324); assay: cAMP agonism at human CRF2α receptor in TeloHEAC cells, FA modified peptides (Example 19.9); assay type: cell-based; settings: 0% HSA, relative to urocortin 2
T2 construct: expressed in transfected cells; host or cells: TeloHEAC
T2 sequence (Q13324 1-411): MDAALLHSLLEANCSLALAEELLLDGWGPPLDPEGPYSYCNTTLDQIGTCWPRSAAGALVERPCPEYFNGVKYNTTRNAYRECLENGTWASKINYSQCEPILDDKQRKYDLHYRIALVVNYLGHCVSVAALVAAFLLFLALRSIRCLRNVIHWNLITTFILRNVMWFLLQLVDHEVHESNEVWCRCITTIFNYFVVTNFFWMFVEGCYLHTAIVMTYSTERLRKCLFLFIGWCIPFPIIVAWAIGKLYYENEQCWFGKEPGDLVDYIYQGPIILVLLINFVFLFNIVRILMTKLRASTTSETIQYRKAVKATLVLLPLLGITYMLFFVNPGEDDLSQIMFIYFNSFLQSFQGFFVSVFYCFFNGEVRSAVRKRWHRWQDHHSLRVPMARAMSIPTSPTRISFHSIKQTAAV
How it was run: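 Efficacy and EC50 are referenced to 100 nM urocortin 2 as 100%, with cAMP measured as the 665/620 nm HTRF ratio after 1 h at room temperature. Compounds (0.5 mM DMSO stock, 16 twofold dilutions) acted 30 min at 37 °C on CRF2α-expressing TeloHEAC cells, buffer containing IBMX and 0% or 0.2% HSA.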

SMILES | CRF1/CRF2 ratio [1] | EC50 [2]
CCCCCCCCCCCCCCCC(=O)N[C@@H](CCC(=O)NCCCC[C@H](NC(=O)[C@H](CC(C)C)NC(=O)[C@H](CCCCN)NC(=O)[C@@H](NC(=O)[C@@H]1CCCN1C(=O)[C@H](NC(=O)[C@H](CC(=O)O)NC(=O)[C@H](CC(C)C)NC(=O)[C@H](CO)NC(=O)[C@H](CC(C)C)NC(=O)[C@@H](NC(=O)[C@@H](N)[C@@H](C)CC)C(C)C)C(C)C)[C@@H](C)CC)C(=O)N[C@@H](CCC(N)=O)C(=O)N[C@H](C(=O)N[C@@H](CC(C)C)C(=O)N[C@@H](CC(C)C)C(=O)N[C@@H](CCCCN)C(=O)N[C@@H](CCC(N)=O)C(=O)N[C@@H](CCC(=O)O)C(=O)N[C@@H](CCCNC(=N)N)C(=O)N[C@@H](CCC(N)=O)C(=O)N[C@@H](CCCCN)C(=O)NC(C)(C)C(=O)N[C@@H](CCC(N)=O)C(=O)N[C@@H](CCCNC(=N)N)C(=O)N[C@@H](CCC(=O)O)C(=O)N[C@@H](CCC(N)=O)C(=O)N[C@@H](C)C(=O)N[C@@H](CCC(=O)O)C(=O)N[C@@H](CCCCN)C(=O)N[C@@H](CC(N)=O)C(=O)N[C@@H](CCCCN)C(=O)N[C@@H](CCC(N)=O)C(=O)N[C@H](C(=O)N[C@@H](CC(C)C)C(=O)N[C@@H](C)C(=O)N[C@@H](CCC(N)=O)C(=O)N[C@H](C(N)=O)C(C)C)[C@@H](C)CC)[C@@H](C)CC)C(=O)O [compound 204] (H-IVLSLD[dV]PIKLK([γGlu-Palmitoyl])QILLKQERQK[Aib]QREQAEKNKQILAQV-NH2) | 3 | 0.14 nM
CCCCCCCCCCCCCCCC(=O)N[C@@H](CCC(=O)NCCCC[C@H](NC(=O)[C@H](CC(C)C)NC(=O)CNC(=O)[C@@H](NC(=O)[C@@H]1CCCN1C(=O)[C@H](NC(=O)[C@H](CC(=O)O)NC(=O)[C@H](CC(C)C)NC(=O)[C@H](CO)NC(=O)[C@H](CC(C)C)NC(=O)[C@@H](NC(=O)[C@@H](N)[C@@H](C)CC)C(C)C)C(C)C)[C@@H](C)CC)C(=O)N[C@@H](CCC(N)=O)C(=O)N[C@H](C(=O)N[C@@H](CC(C)C)C(=O)N[C@@H](CC(C)C)C(=O)N[C@@H](CCCCN)C(=O)N[C@@H](CCC(N)=O)C(=O)N[C@@H](CCC(=O)O)C(=O)N[C@@H](CCCNC(=N)N)C(=O)N[C@@H](CCC(N)=O)C(=O)N[C@@H](CCCCN)C(=O)N[C@@H](CCCCN)C(=O)NC(C)(C)C(=O)N[C@@H](CCCNC(=N)N)C(=O)N[C@@H](CCC(=O)O)C(=O)N[C@@H](CCC(N)=O)C(=O)N[C@@H](C)C(=O)N[C@@H](CCC(=O)O)C(=O)N[C@H](C(=O)N[C@@H](CC(N)=O)C(=O)N[C@@H](CCCCN)C(=O)N[C@@H](CCCNC(=N)N)C(=O)N[C@H](C(=O)N[C@@H](CC(C)C)C(=O)N[C@@H](CCC(=O)O)C(=O)N[C@@H](CCCNC(=N)N)C(=O)N[C@H](C(N)=O)C(C)C)[C@@H](C)CC)[C@@H](C)O)[C@@H](C)CC)C(=O)O [compound 207] (H-IVLSLD[dV]PIGLK([γGlu-Palmitoyl])QILLKQERQKK[Aib]REQAETNKRILERV-NH2; N-terminus assumed) | 6 | 0.68 nM
CCCCCCCCCCCCCCCC(=O)N[C@@H](CCC(=O)NCCCC[C@H](NC(=O)[C@H](CC(C)C)NC(=O)[C@H](CCCCN)NC(=O)[C@@H](NC(=O)[C@@H]1CCCN1C(=O)[C@H](NC(=O)[C@H](CC(=O)O)NC(=O)[C@H](CC(C)C)NC(=O)[C@H](CO)NC(=O)[C@H](CC(C)C)NC(=O)[C@@H](NC(=O)[C@@H](N)[C@@H](C)CC)C(C)C)C(C)C)[C@@H](C)CC)C(=O)N[C@@H](CCC(N)=O)C(=O)N[C@H](C(=O)N[C@@H](CC(C)C)C(=O)N[C@@H](CC(C)C)C(=O)N[C@@H](CCCCN)C(=O)N[C@@H](CCC(N)=O)C(=O)N[C@@H](CCC(=O)O)C(=O)N[C@@H](CCCNC(=N)N)C(=O)N[C@@H](CCC(N)=O)C(=O)N[C@@H](CCCCN)C(=O)NC(C)(C)C(=O)N[C@@H](CCC(N)=O)C(=O)N[C@@H](CCCNC(=N)N)C(=O)N[C@@H](CCC(N)=O)C(=O)N[C@@H](CCC(N)=O)C(=O)N[C@@H](C)C(=O)N[C@@H](CCC(=O)O)C(=O)N[C@@H](CCCCN)C(=O)N[C@@H](CC(N)=O)C(=O)N[C@@H](CCCCN)C(=O)N[C@@H](CCC(N)=O)C(=O)N[C@H](C(=O)N[C@@H](CC(C)C)C(=O)N[C@@H](C)C(=O)N[C@@H](CCC(N)=O)C(=O)N[C@H](C(N)=O)C(C)C)[C@@H](C)CC)[C@@H](C)CC)C(=O)O [compound 208] (H-IVLSLD[dV]PIKLK([γGlu-Palmitoyl])QILLKQERQK[Aib]QRQQAEKNKQILAQV-NH2; N-terminus assumed) | 2 | 0.9 nM
CCCCCCCCCCCCCCCC(=O)N[C@@H](CCC(=O)NCCCC[C@H](NC(=O)[C@H](CC(C)C)NC(=O)[C@H](CCCCN)NC(=O)[C@@H](NC(=O)[C@@H]1CCCN1C(=O)[C@H](NC(=O)[C@H](CC(=O)O)NC(=O)[C@H](CC(C)C)NC(=O)[C@H](CO)NC(=O)[C@H](CC(C)C)NC(=O)[C@@H](NC(=O)[C@@H](N)[C@@H](C)CC)C(C)C)C(C)C)[C@@H](C)CC)C(=O)N[C@@H](CCC(N)=O)C(=O)N[C@H](C(=O)N[C@@H](CC(C)C)C(=O)N[C@@H](CC(C)C)C(=O)N[C@@H](CCCCN)C(=O)N[C@@H](CCC(N)=O)C(=O)N[C@@H](CCC(=O)O)C(=O)N[C@@H](CCCNC(=N)N)C(=O)N[C@@H](CCC(N)=O)C(=O)N[C@@H](CCCCN)C(=O)N[C@@H](CCCCN)C(=O)NC(C)(C)C(=O)N[C@@H](CCCNC(=N)N)C(=O)N[C@@H](CCC(N)=O)C(=O)N[C@@H](CCCCN)C(=O)N[C@@H](C)C(=O)N[C@@H](CCC(=O)O)C(=O)N[C@@H](CCCCN)C(=O)N[C@@H](CC(N)=O)C(=O)N[C@@H](CCCCN)C(=O)N[C@@H](CCC(N)=O)C(=O)N[C@H](C(=O)N[C@@H](CC(C)C)C(=O)N[C@@H](C)C(=O)N[C@@H](CCC(N)=O)C(=O)N[C@H](C(N)=O)C(C)C)[C@@H](C)CC)[C@@H](C)CC)C(=O)O [compound 209] (H-IVLSLD[dV]PIKLK([γGlu-Palmitoyl])QILLKQERQKK[Aib]RQKAEKNKQILAQV-NH2; N-terminus assumed) | 3 | 8.62 nM
CCCCCCCCCCCCCCCC(=O)N[C@@H](CCC(=O)NCCCC[C@H](NC(=O)[C@H](CC(C)C)NC(=O)[C@H](CCCCN)NC(=O)[C@@H](NC(=O)[C@@H]1CCCN1C(=O)[C@H](NC(=O)[C@H](CC(=O)O)NC(=O)[C@H](CC(C)C)NC(=O)[C@H](CO)NC(=O)[C@H](CC(C)C)NC(=O)[C@@H](NC(=O)[C@@H](N)[C@@H](C)CC)C(C)C)C(C)C)[C@@H](C)CC)C(=O)N[C@@H](CCC(N)=O)C(=O)N[C@H](C(=O)N[C@@H](CC(C)C)C(=O)N[C@@H](CC(C)C)C(=O)N[C@@H](CCCCN)C(=O)N[C@@H](CCC(N)=O)C(=O)N[C@@H](CCC(=O)O)C(=O)N[C@@H](CCCNC(=N)N)C(=O)N[C@@H](CCC(N)=O)C(=O)N[C@@H](CCCCN)C(=O)N[C@@H](CCCCN)C(=O)N[C@@H](CCC(N)=O)C(=O)N[C@@H](CCCNC(=N)N)C(=O)N[C@@H](CCC(=O)O)C(=O)N[C@@H](CCC(N)=O)C(=O)N[C@@H](C)C(=O)N[C@@H](CCC(=O)O)C(=O)N[C@@H](CCCCN)C(=O)N[C@@H](CC(N)=O)C(=O)N[C@@H](CCCCN)C(=O)N[C@@H](CCC(N)=O)C(=O)N[C@H](C(=O)N[C@@H](CC(C)C)C(=O)N[C@@H](CCC(=O)O)C(=O)N[C@@H](CCC(N)=O)C(=O)N[C@H](C(N)=O)C(C)C)[C@@H](C)CC)[C@@H](C)CC)C(=O)O [compound 212] (H-IVLSLD[dV]PIKLK([γGlu-Palmitoyl])QILLKQERQKKQREQAEKNKQILEQV-NH2; N-terminus assumed) | 1 | 1.23 nM
